Assay results from patent US20070037882A1, “Remedy for cerebral neurodegenerative diseases using ppar agonist” (Astellas Pharma Inc., priority 2003, published 2007).

Tests used:
SH-SY5Y cells [1] = experiment: Thapsigargin-induced cellular death model, viable cells by MTT assay; assay type: cell-based, human; conditions: for suppression of thapsigargin-induced cellular death (in words): SH-SY5Y; for MTT assay A490: thapsigargin + (100 nM), 24 h
Method: (§1) SH-SY5Y cells were plated on a 96-well plate (70,000 cell/well in 100 μl DMEM low glucose 10% fetal bovine serum) for overnight culturing, from which the culture medium was removed with an aspirator. Then, DMEM without serum was added at 50 μl/well. […] 2 hours later, DMEM without serum containing 600 nM thapsigargin was added at 20 μl/well. (Thapsigargin to a final 100 nM concentration) (For a control, DMEM without serum alone was added.) 24 hours later, the viable cell count was calculated from the absorbance at 490 nm, using Celltiter 96 Aqueous one solution cell proliferaion assay kit (Promega).

SH-SY5Y cells [2] = experiment: Staurosporine-induced cellular death model, viable cells by MTT assay; assay type: cell-based, human; conditions: for suppression of staurosporine-induced cellular death (in words): SH-SY5Y; for MTT assay A490: staurosporine + (150 nM), 24 h
Method: as §1, with “Cellular death was induced by adding a protein kinase inhibitor staurosporine to a neuroblastoma SH-SY5Y to examine the effect of PPARδ agonists on the suppression of cellular death. SH-SY5Y” for “SH-SY5Y”, “containing 900” for “containing 600”, “nM staurosporine” for “nM thapsigargin”, “μl/well. (Staurosporine” for “μl/well. (Thapsigargin”, “final 150” for “final 100”, “cell proliferation” for “cell proliferaion”

[3] = system: murine MPTP Parkinson's model; experiment: Murine MPTP Parkinson's model, striate body DA and metabolites; assay type: in vivo, mice; conditions: for DA content per wet weight of striate body / DOPAC content per wet weight of striate body / HVA content per wet weight of striate body / Resumption ratio of content of DA / Resumption ratio of content of DOPAC / Resumption ratio of content of HVA: MPTP +; for DA content per wet weight of striate body / DOPAC content per wet weight of striate body / HVA content per wet weight of striate body: 4 days after MPTP
SH-SY5Y cells [4] = experiment: Staurosporine-induced cellular death model, apoptosis by caspase-3/7 assay; assay type: cell-based, human; conditions: for suppression of caspase-3/7 activity (in words): SH-SY5Y, staurosporine; for Caspase 3/7 activity: staurosporine + (150 nM), 3 h
Method: (§2) SH-SY5Y cells were spread on a 96-well plate (70,000 cell/well in 100 μl DMEM low glucose 10% fetal bovine serum) for overnight culturing, from which the culture medium was removed with an aspirator. Then, DMEM without serum was added at 50 μl/well. […] 2 hours later, DMEM without serum containing 900 nM staurosporine was added at 20 μl/well. (Staurosporine to a final 150 nM concentration) (For a control, DMEM without serum alone was added).
3 hours later, the caspase-3/7 activity was assayed with Apo-One homogenous Caspase-3/7 assay kit (Promega).

SH-SY5Y cells [5] = experiment: MPP+-induced cellular death model, dead cells by LDH assay; assay type: cell-based, human; conditions: for LDH release A490: MPP+ + (3 mM), 24 h; for cytotoxicity (in words): concentration of 100 μM, MPP+ model
Method: SH-SY5Y cells were spread on a 96-well plate (70,000 cell/well in 100 μl DMEM low glucose 10% fetal bovine serum) for overnight culturing, from which the culture medium was removed with an aspirator. Then, DMEM without serum was added at 50 μl/well. […] 2 hours later, DMEM without serum containing 18 mM MPP^+ was added at 20 μl/well. (MPP^+ to a final 3 mM concentration) (For a control, DMEM without serum alone was added.)
24 hours later, the dead cell count was calculated on the basis of the LDH activity assayed with a cytotoxicity detection kit (Roche). […] The results reveal that the PPARδ agonists are effective on the suppression of MPP^+-induced cellular death.

SH-SY5Y cells [6] = experiment: Staurosporine-induced cellular death model, dead cells by LDH assay; assay type: cell-based, human; conditions: staurosporine + (150 nM), 24 h
Method: as §2, with “plated” for “spread”, “added.) 24 hours later, LDH activity was assayed by measuring the absorbance at 490 nm, using Cytotoxicity detection kit (Roche). […] An apparent correlation is observed with the results of viable cells as determined by the MTT assay in Example 9.” for “added).”

SH-SY5Y cells [7] = experiment: Thapsigargin-induced cellular death model, dead cells by LDH assay; assay type: cell-based, human; conditions: thapsigargin + (100 nM), 24 h, concentration not given
Method: SH-SY5Y cells were plated on a 96-well plate (70,000 cell/well in 100 μl DMEM low glucose 10% fetal bovine serum) for overnight culturing, from which the culture medium was removed with an aspirator. Then, DMEM without serum was added at 50 μl/well. […] 2 hours later, DMEM without serum containing 600 nM thapsigargin was added at 20 μl/well. (Thapsigargin to a final 100 nM concentration) (For a control, DMEM without serum alone was added.) 24 hours later, the absorbance at 490 nm was assayed with a cytotoxicity detection kit (Roche) to assay the LDH activity. […] An apparent correlation between the result of the viable cell count as determined by MTT assay in Example 1 and the LDH activity is shown. The above results clearly indicate that the PPARδ agonists are effective on the suppression of the thapsigargin-induced cellular death.

[8] = 2nd '+' line (presumably 0.1 μM)
[9] = 4th '+' line (presumably 10 μM)
[10] = 5th '+' line (presumably 100 μM)

Row | SMILES | suppression of thapsigargin-induced cellular death (in words) (SH-SY5Y cells [1]) | MTT assay A490 (SH-SY5Y cells [1]; compound 0.1 μM) | MTT assay A490 (SH-SY5Y cells [1]; compound 1 μM) | MTT assay A490 (SH-SY5Y cells [1]; compound 10 μM) | MTT assay A490 (SH-SY5Y cells [1]; compound 100 μM) | suppression of staurosporine-induced cellular death (in words) (SH-SY5Y cells [2]) | MTT assay A490 (SH-SY5Y cells [2]; compound 0.1 μM) | MTT assay A490 (SH-SY5Y cells [2]; compound 1 μM) | MTT assay A490 (SH-SY5Y cells [2]; compound 10 μM) | DA content per wet weight of striate body ([3]; 12 μg/head/day) | DOPAC content per wet weight of striate body ([3]; 12 μg/head/day) | HVA content per wet weight of striate body ([3]; 12 μg/head/day) | DA content per wet weight of striate body ([3]; 120 μg/head/day) | DOPAC content per wet weight of striate body ([3]; 120 μg/head/day) | HVA content per wet weight of striate body ([3]; 120 μg/head/day) | suppression of caspase-3/7 activity (in words) (SH-SY5Y cells [4]) | Caspase 3/7 activity (SH-SY5Y cells [4]; compound 0.1 μM) | Caspase 3/7 activity (SH-SY5Y cells [4]; compound 1 μM) | Caspase 3/7 activity (SH-SY5Y cells [4]; compound 10 μM) | LDH release A490 (SH-SY5Y cells [5]; compound 0.1 μM) | other results
1 | Cc1cc(SCc2sc(-c3ccc(C(F)(F)F)cc3)nc2C)ccc1OCC(=O)O [GW501516] | suppressed cellular death induced by thapsigargin (TG) in a concentration-dependent manner | 0.2978 ± 0.0096 | 0.3150 ± 0.0135 | 0.3478 ± 0.0110 | 0.2950 ± 0.0033 | suppression of staurosporine-induced cellular death in a concentration-dependent manner | 0.5179 ± 0.0140 | 0.5367 ± 0.0149 | 0.5860 ± 0.0086 | 7.41 ± 1.27 ng/mg tissue | 0.39 ± 0.06 ng/mg tissues | 0.82 ± 0.08 ng/mg tissue | 8.98 ± 1.20 ng/mg tissue | 0.44 ± 0.04 ng/mg tissues | 0.90 ± 0.05 ng/mg tissue | suppress the activity of caspase-3/7 | 586295 ± 18787 RFLU | 463943 ± 12110 RFLU | 420844 ± 13962 RFLU | 0.3633 ± 0.0153 | cellular toxicity (in words) (SH-SY5Y cells [1]; concentration of 100 μM, thapsigargin model): cellular toxicity of GW501516 can be observed; action of suppressing the decrease of the contents of DA, DOPAC and HVA (in words) ([3]; any of the doses (12 or 120 μg/head/day)): greatly observed; LDH release A490 (SH-SY5Y cells [5]; compound 1 μM): 0.3222 ± 0.0207; LDH release A490 (SH-SY5Y cells [5]; compound 10 μM): 0.2981 ± 0.0154; LDH release A490 (SH-SY5Y cells [5]; compound 100 μM): 0.7969 ± 0.0251; cytotoxicity (in words) (SH-SY5Y cells [5]): exerted cytotoxicity; LDH release A490 (SH-SY5Y cells [6]; compound 0.1 μM): 0.5430 ± 0.0264; LDH release A490 (SH-SY5Y cells [6]; compound 1 μM): 0.5201 ± 0.0313; LDH release A490 (SH-SY5Y cells [6]; compound 10 μM): 0.4025 ± 0.0188; LDH release A490 (SH-SY5Y cells [7]; [8]): 0.6225 ± 0.0229; LDH release A490 (SH-SY5Y cells [7]; 3rd '+' line (presumably 1 μM)): 0.5750 ± 0.0212; LDH release A490 (SH-SY5Y cells [7]; [9]): 0.3325 ± 0.0259; LDH release A490 (SH-SY5Y cells [7]; [10]): 0.6675 ± 0.0328
2 | CCCc1c(OCCCOc2ccc(OCC(=O)O)cc2)ccc(C(C)=O)c1O [L-165041, 4-[3-[2-propyl-3-hydroxy-4-acetyl]phenoxy]propyloxyphenoxy acetic acid] | suppressed cellular death induced by thapsigargin (TG) in a concentration-dependent manner | 0.2176 ± 0.0036 | 0.2158 ± 0.0034 | 0.2436 ± 0.0015 | 0.4405 ± 0.0065 | suppression of staurosporine-induced cellular death in a concentration-dependent manner | 0.5523 ± 0.0209 | 0.5532 ± 0.0056 | 0.5167 ± 0.0098 | 5.06 ± 1.08 ng/mg tissue | 0.28 ± 0.05 ng/mg tissues | 0.66 ± 0.08 ng/mg tissue | 7.81 ± 0.93 ng/mg tissue | 0.44 ± 0.07 ng/mg tissues | 0.91 ± 0.10 ng/mg tissue | suppress the activity of caspase-3/7 | 535404 ± 23301 RFLU | 520732 ± 17273 RFLU | 483017 ± 27259 RFLU | 0.3980 ± 0.0141 | Resumption ratio of content of DA ([3]; 12 μg/head/day): 0.42 ± 10.20%; Resumption ratio of content of DOPAC ([3]; 12 μg/head/day): −1.45 ± 10.89%; Resumption ratio of content of HVA ([3]; 12 μg/head/day): −4.65 ± 12.88%; Resumption ratio of content of DA ([3]; 120 μg/head/day): 26.42 ± 8.83 %; Resumption ratio of content of DOPAC ([3]; 120 μg/head/day): 32.22 ± 15.41%; Resumption ratio of content of HVA ([3]; 120 μg/head/day): 36.58 ± 16.68%; action of suppressing the decrease of the contents of DA, DOPAC and HVA (in words) ([3]; dose of 12 μg/head/day): not so greatly observed; action of suppressing the decrease of the contents of DA, DOPAC and HVA (in words) ([3]; dose of 120 μg/head/day): greatly observed; LDH release A490 (SH-SY5Y cells [5]; compound 1 μM): 0.3874 ± 0.0120; LDH release A490 (SH-SY5Y cells [5]; compound 10 μM): 0.3133 ± 0.0024; LDH release A490 (SH-SY5Y cells [5]; compound 100 μM): 0.6709 ± 0.0093; cytotoxicity (in words) (SH-SY5Y cells [5]): exerted cytotoxicity; LDH release A490 (SH-SY5Y cells [6]; compound 0.1 μM): 0.5330 ± 0.0298; LDH release A490 (SH-SY5Y cells [6]; compound 1 μM): 0.5230 ± 0.0160; LDH release A490 (SH-SY5Y cells [6]; compound 10 μM): 0.5319 ± 0.0267; LDH release A490 (SH-SY5Y cells [7]; [8]): 0.6758 ± 0.0183; LDH release A490 (SH-SY5Y cells [7]; 3rd '+' line (presumably 1 μM)): 0.6295 ± 0.0139; LDH release A490 (SH-SY5Y cells [7]; [9]): 0.6029 ± 0.0135; LDH release A490 (SH-SY5Y cells [7]; [10]): 0.2987 ± 0.0128
